Experimental data from US11726079B2, “Lighting systems and methods of using lighting systems for in vitro potency assay for Photofrin” (Concordia Laboratories, Inc., priority 2012, dated 2023).

Tested on: A549 human lung carcinoma cells
Assay: Chemotherapeutic drugs as possible positive control, 24 hour incubation with XTT endpoint
Assay type: cell-based
Conditions: data not shown
Procedure: The broadly active chemotherapeutics drugs SN-38 (20 μM top dose), the active metabolite of irinotecan, carboplatin (7.5 mM top dose), and paclitaxel (20 μM top dose) are tested to determine if sufficient cell killing can be achieved under the anticipated assay conditions, i.e., 24 hour incubation with XTT endpoint.

Row | SMILES | cell killing (20 μM top dose) | cell killing (7.5 mM top dose)
1 | CCc1c2c(nc3ccc(O)cc13)-c1cc3c(c(=O)n1C2)COC(=O)[C@]3(O)CC [SN-38] | None of the drugs produce sufficient cell killing | 
2 | N.N.O=C([O-])C1(C(=O)[O-])CCC1.[Pt+2] [carboplatin] |  | None of the drugs produce sufficient cell killing
3 | CC(=O)O[C@H]1C(=O)[C@@]2(C)[C@H]([C@H](OC(=O)c3ccccc3)[C@]3(O)C[C@H](OC(=O)[C@H](O)[C@@H](NC(=O)c4ccccc4)c4ccccc4)C(C)=C1C3(C)C)[C@]1(OC(C)=O)CO[C@@H]1C[C@@H]2O [paclitaxel] | None of the drugs produce sufficient cell killing | 
